1 compound from ChEMBL document CHEMBL6153110, “Peptide Double-Stapling and Arginine N-Glycosylation Triggered the Development of Therapeutic Antimicrobial Peptides Capable of Killing Drug-Resistant Bacteria in Mice” (J Med Chem, 2025) can be followed below.

≈ marks a conversion by molar mass, not a printed value. Calls of active or inactive are those of the source. Positions of bridges follow the written chain, without caps; N, C: chain ends. Non-standard residues stand in square brackets, D forms with d. Residues, ends and D or L forms follow the SMILES beside them. Arg(Nω-βLac) = N=C(NCCC[C@H](N)C(=O)O)N[C@@H]1O[C@H](CO)[C@@H](O[C@@H]2O[C@H](CO)[C@H](O)[C@H](O)[C@H]2O)[C@H](O)[C@H]1O; S5 = C=CCCC[C@](C)(N)C(=O)O

The test system of series [1] is Klebsiella pneumoniae. Description: In vivo antibacterial activity against Klebsiella pneumoniae ATCC 13883 induced bacterial pneumonia mouse model assessed as reduction in bacterial infection induced IL-6 level in lung tissue at 4 mg/kg, injected into trachea after 24 hrs of infection measured after 3 to 7 days. It is filed as functional, organism-based.
Series [2] concerns Staphylococcus aureus. Put plainly: Antibiofilm activity in methicillin-resistant Staphylococcus aureus ATCC 43300 assessed as reduction in biofilm formation at 4.6 ug/ml measured after 24 hrs by crystal violet staining based assay relative to control. It is filed as functional. On the set-up: scale not given: the % may be the effect or the level left. The note with it: dose 4.6 µg/ml.

In series [3] the test system is Klebsiella pneumoniae. Description: In vivo antibacterial activity against Klebsiella pneumoniae ATCC 13883 induced bacterial pneumonia mouse model assessed as reduction in bacterial infection induced IL-1beta mRNA expression in lung tissue at 4 mg/kg, injected into trachea after 24 hrs of infection measured after 3 to 7 days. It counts as functional, organism-based.

Series [4] concerns Klebsiella pneumoniae. Description: In vivo antibacterial activity against Klebsiella pneumoniae ATCC 13883 induced bacterial pneumonia mouse model assessed as reduction in bacterial infection induced weight loss at 1 mg/kg, injected into trachea after 24 hrs of infection measured after 3 to 7 days. It counts as functional, organism-based.
In series [5] the test system is Staphylococcus aureus. Put plainly: In vivo antibacterial activity against methicillin-resistant Staphylococcus aureus ATCC 43300 infected locally in full thickness skin wound mouse model assessed as reduction in bacterial load in skin wound at 1 mg/kg treated with absorbable gelatin sponge measured after 3 days. It is filed as functional, organism-based. The note with it: time 3.0 day.

Series [6] concerns Klebsiella pneumoniae. Description: In vivo antibacterial activity against Klebsiella pneumoniae ATCC 13883 induced bacterial pneumonia mouse model assessed as reduction in bacterial infection induced IL-6 mRNA expression in lung tissue at 4 mg/kg, injected into trachea after 24 hrs of infection measured after 3 to 7 days. It is filed as functional, organism-based.
Series [7] concerns Cell membrane. Put plainly: Induction of cell membrane damage in Klebsiella pneumoniae ATCC 13883 assessed as increase in green fluorescence at MIC measured after 1 hr incubation by SYTO9 confocal microscopy. It counts as subcellular.
Series [8] concerns Streptococcus pneumoniae. Put plainly: Antimicrobial activity against Streptococcus pneumoniae ATCC 49619 assessed as growth inhibition measured after 8 hrs incubation by standard broth dilution assay. It counts as functional. For orientation: Dilution methods test growth across graded concentrations, often in twofold steps.
Series [9] is described as follows: Toxicity in mouse skin assessed as abscesses and visual lesions at 40 mg/kg, sc by histological analysis. It counts as organism-based. The note with it: in vivo.
In series [10] the test system is Klebsiella pneumoniae. Description: In vivo antibacterial activity against Klebsiella pneumoniae ATCC 13883 induced bacterial pneumonia mouse model assessed as increase in survival of mouse at 4 mg/kg, injected into trachea after 24 hrs of infection measured after 3 to 7 days. It counts as functional, organism-based.
The subject of series [11] is Klebsiella pneumoniae. Put plainly: In vivo antibacterial activity against Klebsiella pneumoniae ATCC 13883 induced bacterial pneumonia mouse model assessed as reduction in bacterial infection induced inflammatory response in lungs by measuring large number of alveoli at 4 mg/kg, injected into trachea after 24 hrs of infection measured after 3 to 7 days by H and E staining based assay. It counts as functional, organism-based.

Series [12] concerns Cell membrane. Put plainly: Induction of cell membrane damage in Klebsiella pneumoniae ATCC 13883 assessed as increase in red fluorescence at MIC measured after 1 hr incubation by PI based confocal microscopy. It counts as subcellular.
Series [13] concerns Cell membrane. Description: Induction of cell membrane damage in methicillin-resistant Staphylococcus aureus ATCC 43300 assessed as increase in green fluorescence at MIC measured after 1 hr incubation by SYTO9 confocal microscopy. It is filed as subcellular.
Series [14] concerns Klebsiella pneumoniae. Put plainly: In vivo antibacterial activity against Klebsiella pneumoniae ATCC 13883 induced bacterial pneumonia mouse model assessed as reduction in bacterial infection induced inflammatory response in lungs by measuring large number of alveoli at 1 mg/kg, injected into trachea after 24 hrs of infection measured after 3 to 7 days by H and E staining based assay. It is filed as functional, organism-based.

Series [15] relates to Klebsiella pneumoniae. Description: Antimicrobial activity against Klebsiella pneumoniae ATCC 13883 assessed as growth inhibition measured after 8 hrs incubation by standard broth dilution assay. It is filed as functional.
Series [16] has as its system Klebsiella pneumoniae. Description: Antibacterial activity against Klebsiella pneumoniae ATCC 13883 assessed as reduction in bacterial count at 4.6 ug/ml in bio-film adjusted BM2 medium. It is filed as functional, organism-based. The note with it: dose 4.6 µg/ml.

Usually MIC stands for the smallest concentration in the dilution series that meets the test's criterion for growth inhibition. For `CC(=O)N[C@@H](CCCCN)C(=O)N[C@@H](CCCCN)C(=O)N[C@@H](CCCNC(=N)N)C(=O)N[C@H](C(=O)N[C@@H](CCCCN)C(=O)N[C@@H](CCCCN)C(=O)N[C@@H](CCCNC(=N)N)C(=O)N[C@@]1(C)CCC/C=C\CCC[C@@](C)(C(=O)N[C@@H](CCCCN)C(=O)N[C@@]2(C)CCC/C=C\CCC[C@@](C)(C(=O)N[C@@H](CC(C)C)C(=O)N[C@@H](CCCCN)C(=O)N[C@@H](CCCCN)C(=O)N3CCC[C@H]3C(=O)N[C@H](C(=O)N[C@@H](CCCNC(=N)N[C@@H]3O[C@H](CO)[C@@H](O[C@@H]4O[C@H](CO)[C@H](O)[C@H](O)[C@H]4O)[C@H](O)[C@H]3O)C(N)=O)C(C)C)NC(=O)[C@H](CCCNC(=N)N)NC(=O)[C@H](Cc3c[nH]c4ccccc34)NC(=O)[C@H](Cc3ccc(O)cc3)NC2=O)NC(=O)[C@H](CC(C)C)NC(=O)[C@H](CCCCN)NC(=O)[C@H](Cc2ccccc2)NC1=O)C(C)C` (Ac-KKRVKKR[S5]FKL[S5]K[S5]YWR[S5]LKKPV[Arg(Nω-βLac)]-NH2; staple (Z) 8-12, 14-18), the result in [1], in series [3], in series [4], in series [5], in series [6] and in series [7] was Active. Moreover, the outcome in series [10], in series [11], in series [12], in series [13] and in [14] was Active. Besides, the Activity in [2] is 80.13%; in series [9], “Non-toxic”. Besides, the minimum inhibitory concentration (MIC) in series [8] and in series [15] was 1.1 µg/mL (≈ 0.31 µM) each time. In addition, the result in [16] was inactive.
